What all share (assay type): in vivo, Female Sprague Dawley CD rats
Data set [1] in a line: Change in body weight in ovariectomized rats, daily or once weekly dosing. The settings on record: ovx rats, 6 weeks. An excerpt: (§1) The ability of bazedoxifene to be successfully administered on an extended dosing regimen was established in an in vivo standard pharmacological test procedure which evaluated bone mineral density (BMD), change in body weight, and uterine weight using bazedoxifene acetate as a representative compound of this invention. The following briefly describes the procedure used and results obtained in the standard pharmacological test procedure.
(§2) Female Sprague Dawley CD rats, ovariectomized (ovx) or sham ovx, were obtained 1 day after surgery from Taconic Farm (weight range 240-275 g). They were housed 3 or 4 rats/cage in a room on a 14/10 (light/dark) schedule and provided with food (Purina 500 rat chow) and water ad libitum. Treatment for all studies began 1 day after the animals arrival and dosed either daily or once weekly as indicated for 6 weeks. A group of age matched sham operated rats not receiving any treatment served as an intact, estrogen replete control group for each study. All treatments were prepared in 1% tween 80 in normal saline at defined concentrations so that the treatment volume was 0.1 mL/100 g body weight.
(§3) One week after BMD evaluation the rats were euthanized by carbon dioxide suffocation. The uteri were removed and the weights taken. The following table summarizes the results that were obtained. The sham group was not ovariectomized; all other groups were ovariectomized. In the table below, bazedoxifene acetate is abbreviated as BZA.

Data set [2] relates to ovariectomized (ovx) rats. Briefly: Uterine weight in ovariectomized rats, daily or once weekly dosing. The settings on record: 6 weeks.
Excerpt: as §1, §2, §3

Data set [3] relates to ovariectomized (ovx) rats. The data set is described as follows: Bone mineral density (BMD) in ovariectomized rats, daily or once weekly dosing. The settings on record: measured five weeks after initiation of treatment.
Excerpt: as §1, §2
Five weeks after the initiation of treatment and one week prior to the termination of the study, each rat was evaluated for bone mineral density (BMD). The BMD's of the proximal tibiae (PT) and fourth lumbar vertabrae (L4) were measured in anesthetized rats using a dual energy X-ray absorptiometer (Eclipse XR-26, Norland Corp. Ft. Atkins, Wis.). The dual energy X-ray absorptiometer (DXA) measurements for each rat were performed as follows: Fifteen minutes prior to DXA measurements, the rat was anesthetized with an intraperitoneal injection of 100 mg/kg ketamine (Bristol Laboratories, Syracuse, N.Y.) and 0.75 mg/kg acepromazine (Aveco, Ft.Dodge, Iowa). The rat was placed on an acrylic table under the DXA scanner perpendicular to its path; the limbs were extended and secured with paper tape to the surface of the table. A preliminary scan was performed at a scan speed of 50 mm/second with a scan resolution of 1.5 mm×1.5 mm to determine the region of interest in PT and L4. Small subject software was employed at a scan speed of 10 mm/second with resolution of 0.5 mm X 0.5 mm for final BMD measurements. The software allows the operator to define a 1.5 cm wide area to cover the total length of L4. The BMDs for respective sites were computed by the software as a function of the attenuation of the dual beam (46.8 KeV and 80 KeV) X-ray generated by the source underneath the subject and the detector travelling along the defined area above the subject. The data for BMD values (expressed in g/cm2) and individual scans were stored for statistical analysis.

The record followed here is patent publication US20040063692A1, “Bazedoxifene treatment regimens” (Wyeth, priority 2002, published 2004).

Consider `Cc1c(-c2ccc(O)cc2)n(Cc2ccc(OCCN3CCCCCC3)cc2)c2ccc(O)cc12` [BZA, 1-[4-(2-azepan-1-yl-ethoxy)-benzyl]-2-(4-hydroxy-phenyl)-3-methyl-1H-indol-5-ol], for which the “Δ Body Weight, Mean ± SEM” value in data set [1] (0.3 mg/kg 1×/week) is recorded as 80.5 ± 2.0 g; in data set [1] (0.3 mg/kg 7×/week), 60 ± 5.6 g; in data set [1] (1.0 mg/kg 1×/week), 71.3 ± 4.8 g; in data set [1] (3.0 mg/kg 1×/week) it was 59.3 ± 7.0 g. Besides, the “Uterine Weight, Mean ± SEM” value was 131.3 ± 7.0 mg in data set [2] (0.3 mg/kg 1×/week), 140.3 ± 6.3 mg in data set [2] (0.3 mg/kg 7×/week), 149.9 ± 5.0 mg in data set [2] (1.0 mg/kg 1×/week) and 127.3 ± 10.9 mg in data set [2] (3.0 mg/kg 1×/week). The “Total BMD, Mean ± SEM” value is 556.56 ± 20.5 mg/mL in data set [3] (0.3 mg/kg 1×/week), 604.33 ± 18.6 mg/mL in data set [3] (0.3 mg/kg 7×/week), 562.90 ± 7.7 mg/mL in data set [3] (1.0 mg/kg 1×/week) and 589.36 ± 10.9 mg/mL in data set [3] (3.0 mg/kg 1×/week). Also, the “Trabecular BMD, Mean ± SEM” value is 361.93 ± 34.5 mg/mL in data set [3] (0.3 mg/kg 1×/week), 425.90 ± 26.3 mg/mL in data set [3] (0.3 mg/kg 7×/week), 353.03 ± 15.7 mg/mL in data set [3] (1.0 mg/kg 1×/week) and 427.00 ± 10.0 mg/mL in data set [3] (3.0 mg/kg 1×/week).
